Reference: ChEMBL document CHEMBL3352214, “Studies on indolizines. Evaluation of their biological properties as microtubule-interacting agents and as melanoma targeting compounds” (Eur J Med Chem, 2015)

Legend:
[1] = species: Ovis aries; assay: Inhibition of sheep brain tubulin polymerization at 100 uM by fluorescence assay
[2] = Growth inhibition of human MOLT4 cells at 10^-5 M after 48 hrs by SRB assay; format: functional; settings: MOLT-4, 48 h, read-out: GI
[3] = test system: HL-60(TB); assay: Growth inhibition of human HL-60(TB) cells at 10^-5 M after 48 hrs by SRB assay; format: functional; settings: HL-60, 48 h, read-out: GI
[4] = Growth inhibition of human HOP92 cells at 10^-5 M after 48 hrs by SRB assay; format: functional; settings: HOP-92, 48 h, read-out: GI
[5] = test system: NCI-H522; assay: Growth inhibition of human NCI-H522 cells at 10^-5 M after 48 hrs by SRB assay; format: functional; settings: NCI-H522, 48 h, read-out: GI
[6] = Growth inhibition of human HCT116 cells at 10^-5 M after 48 hrs by SRB assay; format: functional; settings: HCT-116, 48 h, read-out: GI
[7] = Growth inhibition of human HCT15 cells at 10^-5 M after 48 hrs by SRB assay; format: functional; settings: HCT-15, 48 h, read-out: GI
[8] = test system: MDA-MB-435; assay: Growth inhibition of human MDA-MB-435 cells at 10^-5 M after 48 hrs by SRB assay; format: functional; settings: MDA-MB-435, 48 h, read-out: GI
[9] = test system: Malme-3M; assay: Growth inhibition of human MALME-3M cells at 10^-5 M after 48 hrs by SRB assay; format: functional; settings: read-out: GI
[10] = test system: A498; assay: Growth inhibition of human A498 cells at 10^-5 M after 48 hrs by SRB assay; format: functional; settings: A498, 48 h, read-out: GI
[11] = test system: CAKI-1; assay: Growth inhibition of human Caki1 cells at 10^-5 M after 48 hrs by SRB assay; format: functional; settings: CAKI-1, 48 h, read-out: GI
[12] = Growth inhibition of human PC3 cells at 10^-5 M after 48 hrs by SRB assay; format: functional; settings: PC-3, 48 h, read-out: GI
[13] = test system: SNB-75; assay: Growth inhibition of human SNB75 cells at 10^-5 M after 48 hrs by SRB assay; format: functional; settings: SNB-75, 48 h, read-out: GI
[14] = test system: MCF7; assay: Growth inhibition of human MCF7 cells at 10^-5 M after 48 hrs by SRB assay; format: functional; settings: MCF7, 48 h, read-out: GI
[15] = test system: T47D; assay: Growth inhibition of human T47D cells at 10^-5 M after 48 hrs by SRB assay; format: functional; settings: Homo sapiens, T47D, 48 h; read-out: GI
[16] = Growth inhibition of human SF295 cells at 10^-5 M after 48 hrs by SRB assay; format: functional; settings: SF-295, 48 h, read-out: GI
[17] = Growth inhibition of human EKVX cells at 10^-5 M after 48 hrs by SRB assay; format: functional; settings: read-out: GI

SMILES | inhibition [1] [%] | inhibition of growth at 10 µM [2] [%] | inhibition of growth at 10 µM [3] [%] | inhibition of growth at 10 µM [4] [%] | inhibition of growth at 10 µM [5] [%] | inhibition of growth at 10 µM [6] [%] | inhibition of growth at 10 µM [7] [%] | inhibition of growth at 10 µM [8] [%] | inhibition of growth at 10 µM [9] [%] | inhibition of growth at 10 µM [10] [%] | inhibition of growth at 10 µM [11] [%] | inhibition of growth at 10 µM [12] [%] | inhibition of growth at 10 µM [13] [%] | inhibition of growth at 10 µM [14] [%] | inhibition of growth at 10 µM [15] [%] | inhibition of growth at 10 µM [16] [%] | inhibition of growth at 10 µM [17] [%]
CCOC(=O)c1cc(C(=O)c2cc(OC)c(OC)c(OC)c2)n2ccc(C#N)cc12 | 13 | – | – | – | – | – | – | – | – | – | – | – | – | – | – | – | –
COc1cc(C(=O)c2cc(C#N)c3c(C#N)cccn23)cc(OC)c1OC | 39 | 0 | 7 | 8 | 0 | 11 | 23 | 54 | 28 | 0 | 6 | 12 | 69 | 29 | 10 | – | –
COC(=O)c1c(C(=O)OC)c2cccc(C)n2c1C(=O)c1cc(OC)c(OC)c(OC)c1 | 32 | – | – | – | – | – | – | – | – | – | – | – | – | – | – | – | –
CCOC(=O)c1c(C(=O)OCC)c2cc(N(C)C)ccn2c1C(=O)c1cc(OC)c(OC)c(OC)c1 | 26 | – | – | – | – | – | – | – | – | – | – | – | – | – | – | – | –
COc1cc(C(=O)c2cc(C#N)c3cc(C#N)ccn23)cc(OC)c1OC | 46 | 2 | 20 | 0 | 12 | 2 | 21 | 81 | 26 | 10 | 3 | 8 | 7 | 15 | 6 | 4 | –
CCOC(=O)c1cc(C(=O)c2cc(OC)c(OC)c(OC)c2)n2ccc3ccccc3c12 | 41 | – | – | – | – | – | – | – | – | – | – | – | – | – | – | – | –
CCOC(=O)c1c2c(O)nnc(-c3cc(OC)c(OC)c(OC)c3)c2n2cc(C)cc(C)c12 | 43 | 0 | 0 | 0 | 1 | 6 | 0 | 0 | 0 | 15 | 0 | 0 | 5 | 0 | 0 | 0 | –
COC(=O)c1c(C(=O)OC)c2cc(N(C)C)ccn2c1C(=O)c1cc(OC)c(OC)c(OC)c1 | 15 | 0 | 26 | 11 | 3 | 0 | 7 | 4 | 0 | 18 | 19 | 2 | 9 | 0 | 5 | 11 | 0
COC(=O)c1c2c(O)nnc(-c3ccc(OC)cc3)c2n2cc(C)cc(C)c12 | 58 | 15 | 7 | 21 | 22 | 2 | 0 | 0 | 0 | 45 | 15 | 24 | 19 | 6 | – | 2 | –
